In PubChem BioAssay AID2060904 (Molecular Pharmacology Branch, DTP, NCI, 2025) one finds viability, T/C data, which are given here for 4 molecules.
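Further: spheroids exposed to compound for seven days before viability readout.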

The subject of the first assay is 349418-098-R-PDC complex spheroid viability. Briefly: Anticancer human tumor 349418-098-R-PDC patient-derived lung adenocarcinoma cell line growth inhibition [RAS]. The note with it: second compound 3.16 µM; first compound 0.1 µM; active compounds read low. In short, it runs like this:
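Agents were tested in combination matrices in half-log decrements from a top concentration at or near clinical Cmax (10 microM if undetermined). Targets were multi-cell spheroids of tumour lines plus HUVEC and MSC stromal cells.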
By viability, T/C is commonly meant the result in the treated group divided by that in the control group, in per cent. For the molecule `CC1(O)CCCC1n1c(=O)c(C(F)F)cc2cnc(NC3CCN(S(C)(=O)=O)CC3)nc21` (configuration not stated) + C#Cc1c(F)ccc2cc(O)cc(-c3ncc4c(N5CC6CCC(C5)N6)nc(OCC56CCCN5CC(F)C6)nc4c3F)c12, the viability, T/C was 41.9%.

Turning to `CCC(CC)c1cc(NC2CCC(N)C2)n2nccc2n1` (configuration not stated) + C#Cc1c(F)ccc2cc(O)cc(-c3ncc4c(N5CC6CCC(C5)N6)nc(OCC56CCCN5CC(F)C6)nc4c3F)c12, the viability, T/C was 97.5%.

Regarding `CCN1CCN(Cc2ccc(Nc3ncc(F)c(-c4cc(F)c5nc(C)n(C(C)C)c5c4)n3)nc2)CC1` + C#Cc1c(F)ccc2cc(O)cc(-c3ncc4c(N5CC6CCC(C5)N6)nc(OCC56CCCN5CC(F)C6)nc4c3F)c12, the viability, T/C is 29.1%.

In the case of `C[C@@H](NC(=O)c1ncnc(N)c1Cl)c1ncc(C(=O)Nc2cc(C(F)(F)F)c(Cl)cn2)s1` + C#Cc1c(F)ccc2cc(O)cc(-c3ncc4c(N5CC6CCC(C5)N6)nc(OCC56CCCN5CC(F)C6)nc4c3F)c12, the viability, T/C was 92.8%.

Still in this assay, the particulars now being: second compound 3.16 µM; first compound 0.316 µM; active compounds read low.
For the molecule `CC1(O)CCCC1n1c(=O)c(C(F)F)cc2cnc(NC3CCN(S(C)(=O)=O)CC3)nc21` (configuration not stated) + C#Cc1c(F)ccc2cc(O)cc(-c3ncc4c(N5CC6CCC(C5)N6)nc(OCC56CCCN5CC(F)C6)nc4c3F)c12, the viability, T/C was 29.9%.

For the molecule `CCC(CC)c1cc(NC2CCC(N)C2)n2nccc2n1` (configuration not stated) + C#Cc1c(F)ccc2cc(O)cc(-c3ncc4c(N5CC6CCC(C5)N6)nc(OCC56CCCN5CC(F)C6)nc4c3F)c12, the viability, T/C is 83.2%.

For the molecule `CCN1CCN(Cc2ccc(Nc3ncc(F)c(-c4cc(F)c5nc(C)n(C(C)C)c5c4)n3)nc2)CC1` + C#Cc1c(F)ccc2cc(O)cc(-c3ncc4c(N5CC6CCC(C5)N6)nc(OCC56CCCN5CC(F)C6)nc4c3F)c12, the viability, T/C was 30.4%.

In the case of `C[C@@H](NC(=O)c1ncnc(N)c1Cl)c1ncc(C(=O)Nc2cc(C(F)(F)F)c(Cl)cn2)s1` + C#Cc1c(F)ccc2cc(O)cc(-c3ncc4c(N5CC6CCC(C5)N6)nc(OCC56CCCN5CC(F)C6)nc4c3F)c12, the viability, T/C was 87%.

Staying with this assay, now noted: second compound 3.16 µM; first compound 1 µM; active compounds read low.
Turning to `CC1(O)CCCC1n1c(=O)c(C(F)F)cc2cnc(NC3CCN(S(C)(=O)=O)CC3)nc21` (configuration not stated) + C#Cc1c(F)ccc2cc(O)cc(-c3ncc4c(N5CC6CCC(C5)N6)nc(OCC56CCCN5CC(F)C6)nc4c3F)c12, the viability, T/C was 25%.

Regarding `CCC(CC)c1cc(NC2CCC(N)C2)n2nccc2n1` (configuration not stated) + C#Cc1c(F)ccc2cc(O)cc(-c3ncc4c(N5CC6CCC(C5)N6)nc(OCC56CCCN5CC(F)C6)nc4c3F)c12, the viability, T/C is 36.1%.

Take `CCN1CCN(Cc2ccc(Nc3ncc(F)c(-c4cc(F)c5nc(C)n(C(C)C)c5c4)n3)nc2)CC1` + C#Cc1c(F)ccc2cc(O)cc(-c3ncc4c(N5CC6CCC(C5)N6)nc(OCC56CCCN5CC(F)C6)nc4c3F)c12: the viability, T/C was 16.6%.

`C[C@@H](NC(=O)c1ncnc(N)c1Cl)c1ncc(C(=O)Nc2cc(C(F)(F)F)c(Cl)cn2)s1` + C#Cc1c(F)ccc2cc(O)cc(-c3ncc4c(N5CC6CCC(C5)N6)nc(OCC56CCCN5CC(F)C6)nc4c3F)c12: the viability, T/C is 75.2%.

The assay is the same for the next values; noted with them: second compound 3.16 µM; first compound 3.16 µM; active compounds read low.
Consider `CC1(O)CCCC1n1c(=O)c(C(F)F)cc2cnc(NC3CCN(S(C)(=O)=O)CC3)nc21` (configuration not stated) + C#Cc1c(F)ccc2cc(O)cc(-c3ncc4c(N5CC6CCC(C5)N6)nc(OCC56CCCN5CC(F)C6)nc4c3F)c12, for which the viability, T/C was 25.5%.

As to `CCC(CC)c1cc(NC2CCC(N)C2)n2nccc2n1` (configuration not stated) + C#Cc1c(F)ccc2cc(O)cc(-c3ncc4c(N5CC6CCC(C5)N6)nc(OCC56CCCN5CC(F)C6)nc4c3F)c12, the viability, T/C is 3.69%.

Turning to `C[C@@H](NC(=O)c1ncnc(N)c1Cl)c1ncc(C(=O)Nc2cc(C(F)(F)F)c(Cl)cn2)s1` + C#Cc1c(F)ccc2cc(O)cc(-c3ncc4c(N5CC6CCC(C5)N6)nc(OCC56CCCN5CC(F)C6)nc4c3F)c12, the viability, T/C is 48.5%.

Staying with this assay, now noted: second compound 3.16 µM; first compound 10 µM; active compounds read low.
Turning to `CC1(O)CCCC1n1c(=O)c(C(F)F)cc2cnc(NC3CCN(S(C)(=O)=O)CC3)nc21` (configuration not stated) + C#Cc1c(F)ccc2cc(O)cc(-c3ncc4c(N5CC6CCC(C5)N6)nc(OCC56CCCN5CC(F)C6)nc4c3F)c12, the viability, T/C was 4.16%.

As for `CCC(CC)c1cc(NC2CCC(N)C2)n2nccc2n1` (configuration not stated) + C#Cc1c(F)ccc2cc(O)cc(-c3ncc4c(N5CC6CCC(C5)N6)nc(OCC56CCCN5CC(F)C6)nc4c3F)c12, the viability, T/C was 3.11%.

Consider `C[C@@H](NC(=O)c1ncnc(N)c1Cl)c1ncc(C(=O)Nc2cc(C(F)(F)F)c(Cl)cn2)s1` + C#Cc1c(F)ccc2cc(O)cc(-c3ncc4c(N5CC6CCC(C5)N6)nc(OCC56CCCN5CC(F)C6)nc4c3F)c12, for which the viability, T/C is 28.4%.

Still in this assay, the particulars now being: second compound 10 µM; first compound 0.00316 µM; active compounds read low.
For `CCN1CCN(Cc2ccc(Nc3ncc(F)c(-c4cc(F)c5nc(C)n(C(C)C)c5c4)n3)nc2)CC1` + C#Cc1c(F)ccc2cc(O)cc(-c3ncc4c(N5CC6CCC(C5)N6)nc(OCC56CCCN5CC(F)C6)nc4c3F)c12, the viability, T/C is 26.7%.

The same assay, now with this note: second compound 10 µM; first compound 0.01 µM; active compounds read low.
`CCN1CCN(Cc2ccc(Nc3ncc(F)c(-c4cc(F)c5nc(C)n(C(C)C)c5c4)n3)nc2)CC1` + C#Cc1c(F)ccc2cc(O)cc(-c3ncc4c(N5CC6CCC(C5)N6)nc(OCC56CCCN5CC(F)C6)nc4c3F)c12: the viability, T/C was 37.7%.

Still in this assay, the particulars now being: second compound 10 µM; first compound 0.0316 µM; active compounds read low.
As for `CC1(O)CCCC1n1c(=O)c(C(F)F)cc2cnc(NC3CCN(S(C)(=O)=O)CC3)nc21` (configuration not stated) + C#Cc1c(F)ccc2cc(O)cc(-c3ncc4c(N5CC6CCC(C5)N6)nc(OCC56CCCN5CC(F)C6)nc4c3F)c12, the viability, T/C was 49.8%.

For `CCC(CC)c1cc(NC2CCC(N)C2)n2nccc2n1` (configuration not stated) + C#Cc1c(F)ccc2cc(O)cc(-c3ncc4c(N5CC6CCC(C5)N6)nc(OCC56CCCN5CC(F)C6)nc4c3F)c12, the viability, T/C is 52.5%.

With `CCN1CCN(Cc2ccc(Nc3ncc(F)c(-c4cc(F)c5nc(C)n(C(C)C)c5c4)n3)nc2)CC1` + C#Cc1c(F)ccc2cc(O)cc(-c3ncc4c(N5CC6CCC(C5)N6)nc(OCC56CCCN5CC(F)C6)nc4c3F)c12, the viability, T/C is 14.3%.

Consider `C[C@@H](NC(=O)c1ncnc(N)c1Cl)c1ncc(C(=O)Nc2cc(C(F)(F)F)c(Cl)cn2)s1` + C#Cc1c(F)ccc2cc(O)cc(-c3ncc4c(N5CC6CCC(C5)N6)nc(OCC56CCCN5CC(F)C6)nc4c3F)c12, for which the viability, T/C is 76.5%.

The same assay, now with this note: second compound 10 µM; first compound 0.1 µM; active compounds read low.
`CC1(O)CCCC1n1c(=O)c(C(F)F)cc2cnc(NC3CCN(S(C)(=O)=O)CC3)nc21` (configuration not stated) + C#Cc1c(F)ccc2cc(O)cc(-c3ncc4c(N5CC6CCC(C5)N6)nc(OCC56CCCN5CC(F)C6)nc4c3F)c12: the viability, T/C was 12.9%.

`CCC(CC)c1cc(NC2CCC(N)C2)n2nccc2n1` (configuration not stated) + C#Cc1c(F)ccc2cc(O)cc(-c3ncc4c(N5CC6CCC(C5)N6)nc(OCC56CCCN5CC(F)C6)nc4c3F)c12: the viability, T/C is 44.7%.

Turning to `CCN1CCN(Cc2ccc(Nc3ncc(F)c(-c4cc(F)c5nc(C)n(C(C)C)c5c4)n3)nc2)CC1` + C#Cc1c(F)ccc2cc(O)cc(-c3ncc4c(N5CC6CCC(C5)N6)nc(OCC56CCCN5CC(F)C6)nc4c3F)c12, the viability, T/C was 12.5%.

With `C[C@@H](NC(=O)c1ncnc(N)c1Cl)c1ncc(C(=O)Nc2cc(C(F)(F)F)c(Cl)cn2)s1` + C#Cc1c(F)ccc2cc(O)cc(-c3ncc4c(N5CC6CCC(C5)N6)nc(OCC56CCCN5CC(F)C6)nc4c3F)c12, the viability, T/C was 61.5%.

The same assay, now with this note: second compound 10 µM; first compound 0.316 µM; active compounds read low.
For the molecule `CC1(O)CCCC1n1c(=O)c(C(F)F)cc2cnc(NC3CCN(S(C)(=O)=O)CC3)nc21` (configuration not stated) + C#Cc1c(F)ccc2cc(O)cc(-c3ncc4c(N5CC6CCC(C5)N6)nc(OCC56CCCN5CC(F)C6)nc4c3F)c12, the viability, T/C is 16.3%.

For the molecule `CCC(CC)c1cc(NC2CCC(N)C2)n2nccc2n1` (configuration not stated) + C#Cc1c(F)ccc2cc(O)cc(-c3ncc4c(N5CC6CCC(C5)N6)nc(OCC56CCCN5CC(F)C6)nc4c3F)c12, the viability, T/C was 42.7%.

In the case of `CCN1CCN(Cc2ccc(Nc3ncc(F)c(-c4cc(F)c5nc(C)n(C(C)C)c5c4)n3)nc2)CC1` + C#Cc1c(F)ccc2cc(O)cc(-c3ncc4c(N5CC6CCC(C5)N6)nc(OCC56CCCN5CC(F)C6)nc4c3F)c12, the viability, T/C is 5.58%.

For the molecule `C[C@@H](NC(=O)c1ncnc(N)c1Cl)c1ncc(C(=O)Nc2cc(C(F)(F)F)c(Cl)cn2)s1` + C#Cc1c(F)ccc2cc(O)cc(-c3ncc4c(N5CC6CCC(C5)N6)nc(OCC56CCCN5CC(F)C6)nc4c3F)c12, the viability, T/C was 57.5%.

The same assay, now with this note: second compound 10 µM; first compound 1 µM; active compounds read low.
Turning to `CC1(O)CCCC1n1c(=O)c(C(F)F)cc2cnc(NC3CCN(S(C)(=O)=O)CC3)nc21` (configuration not stated) + C#Cc1c(F)ccc2cc(O)cc(-c3ncc4c(N5CC6CCC(C5)N6)nc(OCC56CCCN5CC(F)C6)nc4c3F)c12, the viability, T/C is 14.4%.

Take `CCC(CC)c1cc(NC2CCC(N)C2)n2nccc2n1` (configuration not stated) + C#Cc1c(F)ccc2cc(O)cc(-c3ncc4c(N5CC6CCC(C5)N6)nc(OCC56CCCN5CC(F)C6)nc4c3F)c12: the viability, T/C is 20.4%.

On to `CCN1CCN(Cc2ccc(Nc3ncc(F)c(-c4cc(F)c5nc(C)n(C(C)C)c5c4)n3)nc2)CC1` + C#Cc1c(F)ccc2cc(O)cc(-c3ncc4c(N5CC6CCC(C5)N6)nc(OCC56CCCN5CC(F)C6)nc4c3F)c12, for which the viability, T/C is 2.78%.

In the case of `C[C@@H](NC(=O)c1ncnc(N)c1Cl)c1ncc(C(=O)Nc2cc(C(F)(F)F)c(Cl)cn2)s1` + C#Cc1c(F)ccc2cc(O)cc(-c3ncc4c(N5CC6CCC(C5)N6)nc(OCC56CCCN5CC(F)C6)nc4c3F)c12, the viability, T/C is 33.2%.

Staying with this assay, now noted: second compound 10 µM; first compound 3.16 µM; active compounds read low.
Turning to `CC1(O)CCCC1n1c(=O)c(C(F)F)cc2cnc(NC3CCN(S(C)(=O)=O)CC3)nc21` (configuration not stated) + C#Cc1c(F)ccc2cc(O)cc(-c3ncc4c(N5CC6CCC(C5)N6)nc(OCC56CCCN5CC(F)C6)nc4c3F)c12, the viability, T/C is 9.5%.

On to `CCC(CC)c1cc(NC2CCC(N)C2)n2nccc2n1` (configuration not stated) + C#Cc1c(F)ccc2cc(O)cc(-c3ncc4c(N5CC6CCC(C5)N6)nc(OCC56CCCN5CC(F)C6)nc4c3F)c12, for which the viability, T/C is 1.26%.

In the case of `C[C@@H](NC(=O)c1ncnc(N)c1Cl)c1ncc(C(=O)Nc2cc(C(F)(F)F)c(Cl)cn2)s1` + C#Cc1c(F)ccc2cc(O)cc(-c3ncc4c(N5CC6CCC(C5)N6)nc(OCC56CCCN5CC(F)C6)nc4c3F)c12, the viability, T/C is 30.2%.

Staying with this assay, now noted: second compound 10 µM; first compound 10 µM; active compounds read low.
In the case of `CC1(O)CCCC1n1c(=O)c(C(F)F)cc2cnc(NC3CCN(S(C)(=O)=O)CC3)nc21` (configuration not stated) + C#Cc1c(F)ccc2cc(O)cc(-c3ncc4c(N5CC6CCC(C5)N6)nc(OCC56CCCN5CC(F)C6)nc4c3F)c12, the viability, T/C is 1.44%.

For the molecule `CCC(CC)c1cc(NC2CCC(N)C2)n2nccc2n1` (configuration not stated) + C#Cc1c(F)ccc2cc(O)cc(-c3ncc4c(N5CC6CCC(C5)N6)nc(OCC56CCCN5CC(F)C6)nc4c3F)c12, the viability, T/C was 0.7%.

In the case of `C[C@@H](NC(=O)c1ncnc(N)c1Cl)c1ncc(C(=O)Nc2cc(C(F)(F)F)c(Cl)cn2)s1` + C#Cc1c(F)ccc2cc(O)cc(-c3ncc4c(N5CC6CCC(C5)N6)nc(OCC56CCCN5CC(F)C6)nc4c3F)c12, the viability, T/C was 8.17%.
